Our source for the Ki and IC50 values is ChEMBL document CHEMBL1151596, “7-Oxa[2.2.1]bicycloheptane-2,3-dicarboxylic acid derivatives as phosphatase inhibitors” (Bioorg Med Chem Lett, 1997).

Structures are written as SMILES.

Test [1] is described as follows: Compound was tested for inhibition of protein phosphatase 2B (PP2B, Calcineurin).
Test [2] is described as follows: Compound was tested for inhibition of protein phosphatase 2A (PP2A).
Test [3] concerns Jurkat. In words: Effect on the transcription and release of IL-2 in a reporter-gene assay (RGA). The note with it: Homo sapiens. It is filed as functional, cell-based.
A short description of test [4]: Effect on the transcription and release of thymidine kinase in a reporter-gene assay (RGA). It is filed as functional.
A short description of test [5]: Compound was tested for inhibition of […] ([…]).
Test [6] relates to T-cell. In words: Compound was tested for inhibition of IL-2 secretion in mouse T cell line. It is filed as functional, cell-based.

Take `CCOC(=O)[C@@H]1[C@H](C(=O)OCC)[C@H]2CC[C@@H]1O2`: in test [1], the inhibition constant Ki was more than 100 µM.

Consider `O=C1OC(=O)[C@H]2[C@@H]1[C@@H]1CC[C@H]2O1` [DEMETHYL-CANTHARIDIN], for which the IC50 was 0.97 µM in test [2], more than 22 µM in test [3], 100 µM in test [4] and 5 µM in test [5]. Further, the Ki in test [2] worked out at 0.2 µM; in test [1] it was 3.33 µM.

Turning to `O=C(O)[C@@H]1[C@H](C(=O)O)[C@H]2CC[C@@H]1O2`, the Ki in test [2] was found to be 0.17 µM; in test [1] it was 3.02 µM. In addition, the results for the IC50 in test [3] and in test [4] were more than 100 µM and 42 µM, respectively.

Regarding `C[C@@]12C(=O)OC(=O)[C@]1(C)[C@H]1CC[C@@H]2O1` [CANTHARIDIN], the Ki in test [2] came out at 0.065 µM; in test [1], 10.8 µM.

For the compound `COC(=O)[C@H]1[C@@H](C(=O)O)[C@@H]2CC[C@H]1O2` (single isomer, unassigned), the Ki in test [1] was more than 100 µM.

Consider `C/C=C/C[C@@H](C)[C@@H](O)[C@H]1C(=O)N[C@@H](CC)C(=O)N(C)CC(=O)N(C)[C@@H](CC(C)C)C(=O)N[C@@H](C(C)C)C(=O)N(C)[C@@H](CC(C)C)C(=O)N[C@@H](C)C(=O)N[C@H](C)C(=O)N(C)[C@@H](CC(C)C)C(=O)N(C)[C@@H](CC(C)C)C(=O)N(C)[C@@H](C(C)C)C(=O)N1C` [CYCLOSPORINE], for which the IC50 in test [3] was determined as 0.008 µM.

For the compound `CN(C)C(=O)[C@H]1[C@@H](C(=O)O)[C@@H]2CC[C@H]1O2`, the Ki turned out to be 0.18 µM in test [2] and 2.78 µM in test [1]. The IC50 stood at 5 µM in test [6], 4.7 µM in test [3] and 100 µM in test [4].
